# From ChEMBL document CHEMBL2163338, “Development of triazene prodrugs for ADEPT strategy: new insights into drug delivery system based on carboxypeptidase G2 activation” (Bioorg Med Chem Lett, 2012)
# Tests used:
# [1] = Protein binding in human plasma; type: ADME, cell-free; conditions: read-out: PPB (converted)
# [2] = Half life in phosphate buffered saline at pH 7.4; type: physicochemical
# Pseudomonas sp. [3] = experiment: Activity of Pseudomonas sp. carboxypeptidase G2 assessed as half life of compound hydrolysis by UV spectrophotometric analysis
# Pseudomonas sp. [4] = experiment: Activity of Pseudomonas sp. carboxypeptidase G2 assessed as compound hydrolysis by Michaelis-Menten plot analysis
# Pseudomonas sp. [5] = experiment: Ratio of Kcat to Km for Pseudomonas sp. carboxypeptidase G2
# Albumin = Albumin (Homo sapiens, UniProt P02768); experiment: Binding affinity to human serum albumin by HPLC analysis; type: ADME; conditions: isolated protein
# Sequence of Albumin (P02768 whole entry): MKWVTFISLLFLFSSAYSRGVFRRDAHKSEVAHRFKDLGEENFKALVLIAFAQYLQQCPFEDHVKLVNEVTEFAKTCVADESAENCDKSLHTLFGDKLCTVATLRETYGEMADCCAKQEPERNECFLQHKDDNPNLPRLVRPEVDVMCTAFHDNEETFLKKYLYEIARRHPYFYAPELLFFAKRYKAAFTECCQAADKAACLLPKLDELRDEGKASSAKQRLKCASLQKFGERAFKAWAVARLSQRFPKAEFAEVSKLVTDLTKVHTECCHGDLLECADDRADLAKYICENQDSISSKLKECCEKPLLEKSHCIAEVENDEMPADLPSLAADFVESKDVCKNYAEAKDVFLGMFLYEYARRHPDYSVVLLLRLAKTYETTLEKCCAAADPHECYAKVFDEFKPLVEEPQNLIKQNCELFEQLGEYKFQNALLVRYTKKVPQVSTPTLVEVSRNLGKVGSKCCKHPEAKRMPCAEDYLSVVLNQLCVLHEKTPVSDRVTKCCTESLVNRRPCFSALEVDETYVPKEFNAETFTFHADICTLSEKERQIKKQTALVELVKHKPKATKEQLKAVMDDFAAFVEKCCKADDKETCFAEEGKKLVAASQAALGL
Structure (SMILES),half-life [2] [h],further results
O=C(O)CC[C@H](NC(=O)c1ccc(N(CCCl)CCCl)cc1)C(=O)O,,fraction unbound [1]: 0.08
CC(=O)c1ccc(/N=N/N(C)C(=O)N[C@@H](CCC(=O)O)C(=O)O)cc1,0.0433,
CN(/N=N/c1ccc(C#N)cc1)C(=O)N[C@@H](CCC(=O)O)C(=O)O,2.17,T1/2 (Pseudomonas sp. [3]): 3.5 min; Km (Pseudomonas sp. [4]): 17.7 µM; Vmax (Pseudomonas sp. [4]): 4.94 µM/min; kcat (Pseudomonas sp. [4]): 4.64 s⁻¹; kcat/Km (Pseudomonas sp. [5]): 260000 M⁻¹ s⁻¹
CN(C(=O)OCc1ccc(NC(=O)N[C@@H](CCC(=O)O)C(=O)O)cc1)c1ccc(N(CCI)CCI)cc1,< 0.0667,
Cc1ccc(/N=N/N(C)C(=O)N[C@@H](CCC(=O)O)C(=O)O)cc1,7.63,
O=C(O)CC[C@H](NC(=O)Nc1ccc(N(CCCl)CCCl)cc1)C(=O)O,0.28,Km (Pseudomonas sp. [4]): 3 µM
CN(/N=N/c1ccc(C(N)=O)cc1)C(=O)N[C@@H](CCC(=O)O)C(=O)O,0.107,
CN(/N=N/c1ccc(Br)cc1)C(=O)N[C@@H](CCC(=O)O)C(=O)O,3.66,Activity (Albumin): Active
CN(C(=O)OCc1ccc(NC(=O)N[C@@H](CCC(=O)O)C(=O)O)cc1)c1ccc(N(CCCl)CCCl)cc1,,Km (Pseudomonas sp. [4]): 6.1 µM
O=C(O)CC[C@H](NC(=O)Nc1ccc(COC(=O)Nc2ccc(N(CCI)CCI)cc2N(CCI)CCI)cc1)C(=O)O,< 0.0667,
CCOC(=O)c1ccc(/N=N/N(C)C(=O)N[C@@H](CCC(=O)OC)C(=O)OC)cc1,102,
CCOC(=O)c1ccc(/N=N/N(C)C(=O)N[C@@H](CCC(=O)O)C(=O)O)cc1,2.89,T1/2 (Pseudomonas sp. [3]): 5.7 min; Km (Pseudomonas sp. [4]): 2.73 µM; Vmax (Pseudomonas sp. [4]): 1.18 µM/min; kcat (Pseudomonas sp. [4]): 1.11 s⁻¹; kcat/Km (Pseudomonas sp. [5]): 410000 M⁻¹ s⁻¹
Cc1cc(NC(=O)Nc2ccc(N(CCCl)CCCl)cc2)c2ccccc2n1,16.5,
O=C(O)CC[C@H](NC(=O)Nc1ccc(N(CCCl)CCCl)c(Cl)c1)C(=O)O,< 0.283,
O=C(O)CC[C@H](NC(=O)Nc1ccc(N(CCCl)CCCl)c(F)c1)C(=O)O,< 0.283,
O=C(O)CC[C@H](NC(=O)Nc1ccc(COC(=O)Nc2ccc(N(CCBr)CCBr)cc2N(CCBr)CCBr)cc1)C(=O)O,< 0.0667,
CN(C(=O)OCc1ccc(NC(=O)N[C@@H](CCC(=O)O)C(=O)O)cc1)c1ccc(N(CCBr)CCBr)cc1,< 0.0667,
